These results are taken from US7053188B2, “Monoclonal antibodies specific for neoplasia-specific NADH:disulfide reductase” (Purdue Research Foundation, priority 2002, dated 2006).

The subject of assay [1] is tTIP. As to the kind of experiment: Direct assay of tTIP activity of HeLa plasma membranes with DTNA substrate. It is filed as biochemical, human. The conditions noted are these: no antibody.
Assay [2] concerns NADH oxidase of HeLa plasma membranes. The conditions noted are these: background statement; cited from earlier work.
In assay [3] the test system is tNOX. As to the kind of experiment: NADH oxidase (NOX) activity of pooled sera of cancer patients. The note with it: no MAB. Type of assay: biochemical, human. As for the experimental part:
(§1) Pooled sera. Pooled sera were collected from the patient population of the Michiana Hematology-Oncology Clinic, South Bend, Ind. and from the patient population of St. Elizabeth Hospital of Lafayette, Ind. Only cancer patients with active disease (Stage III or Stage IV) were identified at the time of collections. Sera were frozen after collection and stored frozen at −20° C. Prior to assay, samples were thawed and maintained at 4° C. between thawing and assay.
Spectrophotometric tNOX Assay. NADH oxidase activity was determined as the disappearance of NADH measured at 340 nm with 430 nm as reference using an SLM Aminco (Lake Forest, Calif.) DW-2000 spectrophotometer in the dual wavelength mode of operation or a Hitachi (Tokyo, Japan) U3210 spectrophotometer at 340 nm with continuous recording over 5 or 10 min intervals once steady-state rates were obtained. […] To determine capsaicin inhibition, capsaicin in DMSO was added to a final concentration of 1 μM (0.1% DMSO) and the rate of NADH oxidation determined over 10 min. […]
(§2) NADH oxidase activity can also be measured using an Hitachi (Tokyo, Japan) U3210 spectrophotometer over 5 min intervals at 37° C. The activity was determined as the disappearance of NADH measured at 340 nm. […]

In assay [4] the test system is NADH oxidase of HeLa plasma membranes. As to the kind of experiment: NADH oxidase activity of HeLa S plasma membranes. It is filed as biochemical, human. The conditions noted are these: 37° C. As to the method:
(§3) Spectrophotometric tNOX Assay. NADH oxidase activity was determined as the disappearance of NADH measured at 340 nm with 430 nm as reference using an SLM Aminco (Lake Forest, Calif.) DW-2000 spectrophotometer in the dual wavelength mode of operation or a Hitachi (Tokyo, Japan) U3210 spectrophotometer at 340 nm with continuous recording over 5 or 10 min intervals once steady-state rates were obtained. The reaction mixture contained 50 mM Tris-Mes buffer (pH 7.0), 2 mM KCN to inhibit any potential mitochondrial oxidase activity, and 150 μM NADH in a total volume of 2.5 ml. Assay was at 37° C. with constant stirring. With purified fractions, 1 μM reduced glutathione was added to reduce the protein in the presence of substrate and human serum albumin, 0.1 mg/ml, as a protein source of thiols. After 10 min, 0.03% hydrogenperoxide was added (or oxidized glutathione) to reoxidize the protein under renaturing conditions and in the presence of substrate to start the reaction. A millimolar extinction coefficient of 6.22 was used to determine NADH disappearance. To determine capsaicin inhibition, capsaicin in DMSO was added to a final concentration of 1 μM (0.1% DMSO) and the rate of NADH oxidation determined over 10 min. Capsaicin at a final concentration of 100 μM (0.2% DMSO) was then added and the assay was continued for an additional 10 min.

Assay [5] relates to NADH oxidase of normal sera. Nature of the assay: NADH oxidase (NOX) activity of pooled sera of normal volunteers. Type of assay: biochemical, human. As for the experimental part: as §1, §3, §2
Assay [6] deals with tNOX. Nature of the assay: Immunoprecipitation of tNOX with MAB 12.1, supernatant activity assayed. Type of assay: biochemical, human. The note with it: Preimmune. As to the method:
Spectrophotometric tNOX Assay. NADH oxidase activity was determined as the disappearance of NADH measured at 340 nm with 430 nm as reference using an SLM Aminco (Lake Forest, Calif.) DW-2000 spectrophotometer in the dual wavelength mode of operation or a Hitachi (Tokyo, Japan) U3210 spectrophotometer at 340 nm with continuous recording over 5 or 10 min intervals once steady-state rates were obtained. The reaction mixture contained 50 mM Tris-Mes buffer (pH 7.0), 2 mM KCN to inhibit any potential mitochondrial oxidase activity, and 150 μM NADH in a total volume of 2.5 ml. Assay was at 37° C. with constant stirring. With purified fractions, 1 μM reduced glutathione was added to reduce the protein in the presence of substrate and human serum albumin, 0.1 mg/ml, as a protein source of thiols. After 10 min, 0.03% hydrogenperoxide was added (or oxidized glutathione) to reoxidize the protein under renaturing conditions and in the presence of substrate to start the reaction. A millimolar extinction coefficient of 6.22 was used to determine NADH disappearance. To determine capsaicin inhibition, capsaicin in DMSO was added to a final concentration of 1 μM (0.1% DMSO) and the rate of NADH oxidation determined over 10 min. Capsaicin at a final concentration of 100 μM (0.2% DMSO) was then added and the assay was continued for an additional 10 min. Immunoprecipitation. […]

The subject of assay [7] is tTIP. Nature of the assay: tTIP activity of sera of cancer patients, dithio-dipyridyl substrate. It is filed as biochemical, human. The conditions noted are these: Breast CA sera, without MAB 12.1. The text has this:
An alternative assay procedure is the use of a dithio-dipyridyl substrate as described in Morré et al. (1999) Mol. Cell. Biochem. 207:7-13.

Setting [8] is: cells incubated in 0.1 M sodium acetate, pH 5, 2 h.
Setting [9] is: cells incubated in PBS, pH 7, 2 h.

The Km is the substrate concentration at which the rate is half of its maximum. Turning to `O=C(O)c1ccc(SSc2ccc(C(=O)O)cn2)nc1` [DTNA, 6,6′-dithionicotinic acid], the Km in the assay with tTIP [1] stood at 1500 µM. For the same compound, the VMAX with tTIP [1] (estimated) is recorded as 1.5 nmoles/min/mg protein.
Consider `Cc1ccc(S(=O)(=O)NC(=O)Nc2ccc(Cl)cc2)cc1` [LY181984], for which, in assay [2], the “ability of HeLa plasma membrane vesicles to oxidize NADH (in words)” value was “partially inhibited”.
`COc1cc(CNC(=O)CCCC/C=C/C(C)C)ccc1O` [capsaicin, 8-methyl-N-vanillyl-6-noneamide]: the “NOX activity of sera, +1 μM Cap” value amounted to 1.0 ± 0.13 in the assay on tNOX [3] (1 μM capsaicin) and 0.7 ± 0.14 in assay [5] (normal sera, no MAB, 1 μM capsaicin). Moreover, the “NOX activity of sera, + μM Cap” value in the assay on tNOX [3] (capsaicin (concentration not given)) turned out to be 1.0 ± 0.17; in assay [5] (normal sera, no MAB, capsaicin (concentration not given)), 0.7 ± 0.16. Further, the “ability of HeLa plasma membrane vesicles to oxidize NADH (in words)” value in assay [2] was “partially inhibited”. For the same compound, the results for the “NADH oxidase activity, 1 μM capsaicin” value in assay [4] (setting [8]) and in assay [4] (setting [9]) were 0.2 ± 0.01 nmoles/min/mg plasma membrane protein and 0.2 ± 0.02 nmoles/min/mg plasma membrane protein, respectively. Also, the “NADH oxidase activity, 100 μM capsaicin” value is given as 0.15 ± 0.02 nmoles/min/mg plasma membrane protein in assay [4] (setting [8]) and 0.2 ± 0.02 nmoles/min/mg plasma membrane protein in assay [4] (setting [9]). Besides, in assay [5] (capsaicin 1 to 100 μM), the “NADH oxidation by pooled sera from normal patients (in words)” value is given as “not inhibited”. Besides, the “Supernatant activity, 1 μM capsaicin” value with tNOX [6] (1 μM capsaicin) amounted to 0.6 ± 0.4 nmoles/min/100 μl serum. Further, the “Supernatant activity, 100 μM capsaicin” value with tNOX [6] (100 μM capsaicin) is 0.5 nmoles/min/100 μl serum. Besides, in the assay on tTIP [7], the Capsaicin inhibition is listed as −0.6.
